What was measured:
Type in all cases: in vivo
[1] = tested on: Echinochloa crus-galli var. formosensis; assay: Test Example 1: herbicidal effect test by soil application in paddy rice; conditions: Echinochloa crus-galli, 336 h, 120 g per 10 ares, 14 days after application, read-out: weed inhibition rate
Procedure, shortened: (§1)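 Paddy soil in flooded Wagner pots (~3 cm water), weed seeds sown at 0–1 cm depth, greenhouse; emulsifiable concentrate diluted in water and applied by dropper immediately after sowing at 120 g active ingredient per 10 ares. Duplicate pots; weed inhibition rate (%) scored 14 days after application.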

Monochoria vaginalis = assay: as above; conditions: Pontederia vaginalis, 336 h, 120 g per 10 ares, 14 days after application, read-out: weed inhibition rate
Procedure, shortened: as §1

Scirpus juncoides [2] = assay: as above; conditions: Schoenoplectiella juncoides, 336 h, 120 g per 10 ares, 14 days after application, read-out: weed inhibition rate
Procedure, shortened: as §1

[3] = tested on: Echinochloa crus-galli var. formosensis; assay: Test Example 2: herbicidal effect test by application during growth period of paddy rice; conditions: Echinochloa crus-galli, 7 days after sowing, 120 g per 10 ares, 14 days after application, read-out: weed inhibition rate
Procedure, shortened: (§2)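 Flooded paddy-soil pots (about 3 cm water) sown with 30 seeds per weed species and kept in a greenhouse. Emulsifiable concentrate applied by dropper seven days after sowing at 120 g active ingredient per 10 ares, in duplicate. Herbicidal effect scored 14 days after application.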

Scirpus juncoides [4] = assay: as above; conditions: Schoenoplectiella juncoides, 7 days after sowing, 120 g per 10 ares, 14 days after application, read-out: weed inhibition rate
Procedure, shortened: as §2

Amaranthus viridis = assay: Test Example 3: herbicidal effect test by soil application in upland field; conditions: Amaranthus viridis, 1 day after sowing, 120 g per 10 ares, 14 days after application, read-out: weed inhibition rate
Procedure, shortened: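 Twenty seeds per weed species were mixed into the top 1 cm of alluvial loam in pots. One day after sowing, an emulsifiable concentrate diluted in water was sprayed on the soil surface at 120 g active ingredient per 10 ares.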

Digitaria ciliaris [5] = assay: Test Example 4: herbicidal effect test by stem and leaf treatment in upland field; conditions: Digitaria ciliaris, 7 days after sowing, 120 g per 10 ares, 14 days after application, read-out: weed inhibition rate
Procedure, shortened: (§3)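 Weeds sown in alluvial loam and sprayed 7 days after sowing with a water-diluted emulsifiable concentrate at 100 L per 10 ares, equivalent to 120 g active ingredient per 10 ares.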

Echinochloa crus-galli [6] = assay: as above; conditions: Echinochloa crus-galli, 7 days after sowing, 120 g per 10 ares, 14 days after application, read-out: weed inhibition rate
Procedure, shortened: as §3

[7] = tested on: Echinochloa crus-galli var. formosensis; assay: Test Example 6: herbicidal effect test by application during growth period of paddy rice; conditions: Echinochloa crus-galli, 7 days after sowing, 7.5 g per 10 ares, 14 days after application, read-out: weed inhibition rate
Procedure: Herbicidal Effect Test by Application During Growth Period of Paddy Rice
Wagner pots with an area of […] were filled with paddy soil, followed by addition of water and incorporation of chemical fertilizer (N:P:K=16:16:16), after which puddling was performed. After that, seeds of Echinochloa crus-galli var. formosensis, broad-leaved weeds (Lindemia pyxidaria, and Monochoria vaginalis), and Scirpus juncoides were sown at a depth of 0 cm to 1 cm, 30 seeds each. Immediately after sowing, the pots were flooded and a water depth of approximately 3 cm was maintained. Subsequent management was conducted in a glass greenhouse. Seven days after sowing, an emulsifiable concentrate prepared according to Formulation Example 5 using the compound shown below was diluted with water, and a specified amount of the diluted solution was applied by dropper. The amount of the active ingredient to be applied was equivalent to 7.5 g per 10 ares. The test was conducted in duplicate for each chemical concentration group, and the herbicidal effect was evaluated 14 days after chemical application using the same criteria as in Test Example 1.

Digitaria ciliaris [8] = assay: Test Example 7: herbicidal effect test by soil application in upland field; conditions: Digitaria ciliaris, 1 day after sowing, 7.5 g per 10 ares, 14 days after application, read-out: weed inhibition rate
Procedure: (§4) Herbicidal Effect Test by Soil Application in Upland Field
(§5) Pots with an area of 36 cm^2 were filled with upland soil (alluvial loam), twenty seeds each of weeds of Digitaria ciliaris, Echinochloa crus-galli, Chenopodium album, and Amaranthus viridis were uniformly mixed with the top 1 cm layer of soil and the surface was lightly pressed down. One day after sowing, an emulsifiable concentrate prepared according to Formulation Example 5 using the compound shown below was diluted with water, and the diluted solution was sprayed onto the soil surface at a rate of 100 liters per 10 ares. The amount of the active ingredient to be applied was equivalent to 7.5 g per 10 ares. Fourteen days after chemical application, the herbicidal effect was evaluated according to the same criteria as in Test Example 1.

Echinochloa crus-galli [9] = assay: as above; conditions: Echinochloa crus-galli, 1 day after sowing, 7.5 g per 10 ares, 14 days after application, read-out: weed inhibition rate
Procedure: as §4, §5

CCOC(C)O[C@H]1C[C@]2(C)O[C@@]1(C(C)C)C[C@H]2OCc1ccccc1F (stereo partly drawn) [1-213, (1R,2S,4S,5R)-2-(1-ethoxyethoxy)-5-((2-fluorobenzyl)oxy)-1-isopropyl-4-methyl-7-oxabicyclo[2.2.1]heptane]
≥ 80%: inhibition at 1200 g/ha [1] | inhibition at 1200 g/ha (Monochoria vaginalis) | inhibition at 1200 g/ha (Scirpus juncoides [2]) | inhibition at 1200 g/ha [3] | inhibition at 1200 g/ha (Scirpus juncoides [4]) | inhibition at 1200 g/ha (Amaranthus viridis) | inhibition at 1200 g/ha (Digitaria ciliaris [5]) | inhibition at 1200 g/ha (Echinochloa crus-galli [6]) | inhibition at 75 g/ha [7] | inhibition at 75 g/ha (Digitaria ciliaris [8]) | inhibition at 75 g/ha (Echinochloa crus-galli [9])

Reference: patent publication US20260327240A1, “1,4-CINEOLE DERIVATIVE AND INTERMEDIATE THEREOF, HERBICIDE CONTAINING SAID DERIVATIVE AS ACTIVE INGREDIENT, METHOD FOR USING HERBICIDE, AND METHOD FOR PREPARING AGROCHEMICAL COMPOSITION” (HOKKO CHEMICAL INDUSTRY CO., LTD., priority 2023, published 2026)
